Data as given in patent US20130078613A1, “Selection of HCV Treatment” (ROCHE MOLECULAR SYSTEMS, priority 2011, published 2013).
Marks after values point to notes of the source that are not given here.

Tests used:
HCV genotypes (1-4) = details: four main genotypes (1-4); cited from earlier work
HCV [1] = details: combination with PEG-IFN and RBV; cited from earlier work
[2] = extensively converted to RO4995855; cited from earlier work
CHC genotype 1 or 4 [3] = assay: Clinical Study NV22621; assay type: in vivo, human
Text: (§1) The term “response” to treatment is a desirable response to the administration of an agent. Virological endpoints included “early virological response” (EVR), defined as ≧2-log drop in serum HCV RNA from baseline to week 12 (by Cobas Amplicor HCV Monitor Test, v2.0, limit of quantitation 600 IU/mL), complete EVR (cEVR) defined as undetectable HCV RNA (<15 IU/mL) in serum (by Cobas Amplicor HCV Test v2.0, […]) or and “sustained virological response” (SVR), defined as undetectable HCV RNA (<15 IU/mL) at the end of either a 12-week (SVR-12) or a 24-week (SVR-24) untreated follow-up period. The term “sustained rapid virological response” (sRVR) refers to undetectable HCV RNA (<15 IU/mL) during the period of 4 weeks and 22 weeks of treatment. The term “extended rapid virological response” (eRVR) refers to undetectable HCV RNA (<15 IU/mL) during the period of between 4 weeks and 20 weeks of treatment.
Study NV22621 was designed to determine the safety and efficacy of longer treatment duration (24 weeks) of 1000 mg BID RO5024048 in combination with PEG-IFN/RBV in treatment naïve CHC genotype 1 or 4 patients. Patients enrolled in Study NV22621 were randomized to one of two treatment groups (FIG. 1B) (approximately 80 patients per treatment group). In the response-guided treatment group, patients with a sustained RVR (sRVR, defined as undetectable HCV RNA from week 4-22) stopped all therapy at Week 24.
The Roche Clinical Repository (RCR) is an optional program that requires separate consent; data are anonymized to assure patient privacy. The RCR DNA samples were used to determine IL28B status using TaqMan Real-Time PCR. Efficacy endpoints were summarized for the two subgroups, CC vs. non-CC (CT and TT).

NS5B (S282T) = molecular target: T1, NS5B (S282T) (Hepatitis C virus genotype 1b, UniProt Q9WMX2, S2701T); details: sequential passage of replicon cells; cited from earlier work
T1 construct: Amino acid substitution in NS5B (S282T)

[4] = molecular target: NS5B-directed HCV polymerase (Hepatitis C virus genotype 1b, UniProt Q9WMX2); details: ref [7]; cited from earlier work
CHC genotype 1 or 4 [5] = assay: Clinical Study NV20536; assay type: in vivo, human; details: for SVR-12 and SVR-24: across RVR-guided arms; for relapse / SVR-12 (%) / SVR-12 n/N / SVR-24 (%) / SVR-24 n/N: sRVR patients
Text: as §1
Study NV20536 was designed to determine the optimal dose (500 or 1000 mg twice daily [BID]) and duration (8 or 12 weeks) of RO5024048 in combination with PEG-IFN/RBV in treatment-naïve CHC genotype 1 or 4 patients. Patients enrolled in Study NV20536 were randomized to one of five treatment groups (FIG. 1A) (approximately 80 patients per treatment group). In the response-guided treatment groups, patients with a sustained RVR (sRVR, defined as undetectable HCV RNA from week 4-22) stopped all therapy at Week 24.
Patients received double blinded experimental treatment with RO5024048 500 mg BID and standard of care treatment (SOC, Pegasys 180 μg sc qw+Copegus 1000 mg (<75 kg) or 1200 mg (≧75 kg) po qd) or RO5024048 1000 mg BID and SOC respectively, for 12 weeks followed by SOC for 12 weeks. Patients who achieve an RVR, defined as undetectable HCV RNA at week 4, and remain undetectable through week 22 stopped all treatment at week 24. Non-RVR patients received SOC for an additional 24 weeks for a total treatment duration of 48 weeks.
Patients received double blinded experimental treatment with RO5024048 1000 mg BID and SOC for 8 weeks followed by SOC for 16 weeks. Patients who achieve an RVR defined as undetectable HCV RNA at week 4, and remain undetectable through week 22 stopped all treatment at week 24. Non-RVR patients received SOC for an additional 24 weeks for a total treatment duration of 48 weeks. […]
The Roche Clinical Repository (RCR) is an optional program that requires separate consent; data are anonymized to assure patient privacy. The RCR DNA samples were used to determine IL28B status using TaqMan Real-Time PCR for rs12979860. Efficacy endpoints were summarized for the two subgroups, CC vs. non-CC (CT and TT).

HCV [6] = details: RBV monotherapy; cited from earlier work
[7] = Group A, 1000 mg 24 wks + P/R RVR-guided, Total, sRVR patients
[8] = Group A, 500 mg 12 wks + P/R RVR-guided, IL28B CC
[9] = Group A, 500 mg 12 wks + P/R RVR-guided, IL28B NonCC
[10] = Group A, 500 mg 12 wks + P/R RVR-guided, Total
[11] = Group B, 1000 mg 8 wks + P/R RVR-guided, IL28B CC
[12] = Group B, 1000 mg 8 wks + P/R RVR-guided, IL28B NonCC
[13] = Group B, 1000 mg 8 wks + P/R RVR-guided, Total
[14] = Group C, 1000 mg 12 wks + P/R RVR-guided, IL28B CC
[15] = Group C, 1000 mg 12 wks + P/R RVR-guided, IL28B NonCC
[16] = Group C, 1000 mg 12 wks + P/R RVR-guided, Total

T1 sequence (Q9WMX2 2420-3010 S2701T): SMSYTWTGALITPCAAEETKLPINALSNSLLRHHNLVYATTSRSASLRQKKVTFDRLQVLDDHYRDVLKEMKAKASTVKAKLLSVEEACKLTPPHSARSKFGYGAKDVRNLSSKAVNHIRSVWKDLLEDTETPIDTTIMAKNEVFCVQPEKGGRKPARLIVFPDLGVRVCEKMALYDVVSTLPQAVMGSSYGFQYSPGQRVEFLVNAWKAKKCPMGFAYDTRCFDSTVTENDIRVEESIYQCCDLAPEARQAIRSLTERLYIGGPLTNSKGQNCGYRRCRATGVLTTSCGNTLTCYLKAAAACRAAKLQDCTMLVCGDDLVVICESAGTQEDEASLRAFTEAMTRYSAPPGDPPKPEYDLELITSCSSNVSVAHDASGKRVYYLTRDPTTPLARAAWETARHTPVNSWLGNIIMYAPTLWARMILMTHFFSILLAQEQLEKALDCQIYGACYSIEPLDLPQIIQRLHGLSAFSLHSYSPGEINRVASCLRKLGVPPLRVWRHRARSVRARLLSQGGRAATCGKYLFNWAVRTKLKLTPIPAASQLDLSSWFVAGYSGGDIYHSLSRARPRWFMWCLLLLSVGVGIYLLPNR
NS5B-directed HCV polymerase, sequence (Q9WMX2 2420-3010): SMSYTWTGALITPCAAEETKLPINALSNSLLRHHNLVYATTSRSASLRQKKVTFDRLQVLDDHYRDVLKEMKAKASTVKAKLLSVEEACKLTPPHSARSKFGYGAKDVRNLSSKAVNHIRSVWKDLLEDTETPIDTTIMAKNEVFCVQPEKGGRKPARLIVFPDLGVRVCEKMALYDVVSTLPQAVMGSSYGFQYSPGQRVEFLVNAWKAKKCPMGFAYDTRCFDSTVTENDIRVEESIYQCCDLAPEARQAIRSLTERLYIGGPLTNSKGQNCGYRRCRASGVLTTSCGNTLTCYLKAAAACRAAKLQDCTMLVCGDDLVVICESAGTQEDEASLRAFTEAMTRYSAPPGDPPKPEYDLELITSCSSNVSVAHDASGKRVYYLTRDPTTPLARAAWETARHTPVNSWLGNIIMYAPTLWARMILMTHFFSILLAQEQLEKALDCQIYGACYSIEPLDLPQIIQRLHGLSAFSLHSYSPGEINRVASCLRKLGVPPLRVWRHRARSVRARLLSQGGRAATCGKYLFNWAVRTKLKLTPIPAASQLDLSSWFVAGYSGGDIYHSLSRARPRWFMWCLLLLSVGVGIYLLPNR

CC(C)C(=O)OC[C@H]1O[C@@H](n2ccc(N)nc2=O)[C@](C)(F)[C@@H]1OC(=O)C(C)C [RO5024048, mericitabine]
in vitro activity across genotypes (HCV genotypes (1-4)): Activity has been demonstrated
antiviral effect of combination (HCV [1]): additive antiviral effect
absorption after oral administration [2]: rapidly absorbed
cEVR (CHC genotype 1 or 4 [3]; 1000-mg group, RCR-consented population): 94%
SVR-12 n/N (CHC genotype 1 or 4 [3]; Group A, 1000 mg 24 wks + P/R RVR-guided, IL28B CC, sRVR patients): 12/15
SVR-12 n/N (CHC genotype 1 or 4 [3]; Group A, 1000 mg 24 wks + P/R RVR-guided, IL28B NonCC, sRVR patients): 13/18
SVR-12 (%) (CHC genotype 1 or 4 [3]; [7]): (75.0%)*
SVR-12 n/N (CHC genotype 1 or 4 [3]; [7]): 24/32
sRVR (%) (CHC genotype 1 or 4 [3]; Group A, RO5024048 1000 mg 24 wks + P/R 24/48 wks RVR-guided, N = 52, Total): (63.5%)
RVR (CHC genotype 1 or 4 [3]; RVR-guided 1000-mg group (24 wks with PEG-IFN/RBV), overall population): 63%
cEVR (CHC genotype 1 or 4 [3]; RVR-guided 1000-mg group, overall ITT population): 89%
week-24 virological response (CHC genotype 1 or 4 [3]; RVR-guided 1000-mg group, overall population): 91%
maximal rate of undetectable viral load (CHC genotype 1 or 4 [3]; non-CC genotype, 24 weeks of triple therapy, at weeks 20 to 24 (data not shown)): > 90%
resistance conferred by NS5B S282T substitution (NS5B (S282T)): low level resistance
IC50 [4]: 0.61 ± 0.04 µM
RVR (undetectable HCV RNA at week 4) (CHC genotype 1 or 4 [5]; 500-mg 12-week RVR-guided group, with PEG-IFN/RBV, overall population): 38%
SVR-12 and SVR-24 (CHC genotype 1 or 4 [5]; CC patients who achieve sRVR and stop all treatment after 24 weeks): 67-90%
relapse (CHC genotype 1 or 4 [5]; CC, arm A, 12 weeks followup after EOT): 2/8
relapse (CHC genotype 1 or 4 [5]; CC, arm A, 24 weeks followup after EOT): 2/7
relapse (CHC genotype 1 or 4 [5]; CC, arm C, 12 weeks followup after EOT): 4/12
relapse (CHC genotype 1 or 4 [5]; CC, arm C, 24 weeks followup after EOT): 4/12
SVR-12 (%) (CHC genotype 1 or 4 [5]; [8]): (75.0%)
SVR-12 n/N (CHC genotype 1 or 4 [5]; [8]): 6/8
SVR-24 (%) (CHC genotype 1 or 4 [5]; [8]): (85.7%)
SVR-24 n/N (CHC genotype 1 or 4 [5]; [8]): 6/7
SVR-12 (%) (CHC genotype 1 or 4 [5]; [9]): (66.7%)
SVR-12 n/N (CHC genotype 1 or 4 [5]; [9]): 6/9
SVR-24 (%) (CHC genotype 1 or 4 [5]; [9]): (55.6%)
SVR-24 n/N (CHC genotype 1 or 4 [5]; [9]): 5/9
SVR-12 (%) (CHC genotype 1 or 4 [5]; [10]): (70.6%)*
SVR-12 n/N (CHC genotype 1 or 4 [5]; [10]): 12/17
SVR-24 (%) (CHC genotype 1 or 4 [5]; [10]): (68.8%)*
SVR-24 n/N (CHC genotype 1 or 4 [5]; [10]): 11/16
sRVR (%) (CHC genotype 1 or 4 [5]; Group A, RO5024048 500 mg 12 wks + P/R 24/48 wks RVR-guided, N = 49, Total): (36.7%)
SVR-12 (%) (CHC genotype 1 or 4 [5]; [11]): (90.0%)
SVR-12 n/N (CHC genotype 1 or 4 [5]; [11]): 9/10
SVR-24 (%) (CHC genotype 1 or 4 [5]; [11]): (80.0%)
SVR-24 n/N (CHC genotype 1 or 4 [5]; [11]): 8/10
SVR-12 (%) (CHC genotype 1 or 4 [5]; [12]): (38.5%)
SVR-12 n/N (CHC genotype 1 or 4 [5]; [12]): 5/13
SVR-24 (%) (CHC genotype 1 or 4 [5]; [12]): (25.0%)
SVR-24 n/N (CHC genotype 1 or 4 [5]; [12]): 3/12
SVR-12 (%) (CHC genotype 1 or 4 [5]; [13]): (60.9%)
SVR-12 n/N (CHC genotype 1 or 4 [5]; [13]): 14/23
SVR-24 (%) (CHC genotype 1 or 4 [5]; [13]): (50.0%)*
SVR-24 n/N (CHC genotype 1 or 4 [5]; [13]): 11/22
sRVR (%) (CHC genotype 1 or 4 [5]; Group B, RO5024048 1000 mg 8 wks + P/R 24/48 wks RVR-guided, N = 49, Total): (46.9%)
SVR-12 n/N (CHC genotype 1 or 4 [5]; [14]): 8/12
SVR-24 (%) (CHC genotype 1 or 4 [5]; [14]): (66.7%)
SVR-24 n/N (CHC genotype 1 or 4 [5]; [14]): 8/12
SVR-12 n/N (CHC genotype 1 or 4 [5]; [15]): 5/18
SVR-24 (%) (CHC genotype 1 or 4 [5]; [15]): (22.2%)
SVR-24 n/N (CHC genotype 1 or 4 [5]; [15]): 4/18
SVR-12 (%) (CHC genotype 1 or 4 [5]; [16]): (43.3%)
SVR-12 n/N (CHC genotype 1 or 4 [5]; [16]): 13/30
SVR-24 (%) (CHC genotype 1 or 4 [5]; [16]): (40.0%)
SVR-24 n/N (CHC genotype 1 or 4 [5]; [16]): 12/30
sRVR (%) (CHC genotype 1 or 4 [5]; Group C, RO5024048 1000 mg 12 wks + P/R 24/48 wks RVR-guided, N = 46, Total): (65.2%)
SVR-12 and SVR-24 (CHC genotype 1 or 4 [5]; non-CC patients who achieve sRVR and stop all treatment after 24 weeks): 22-67%
relapse (CHC genotype 1 or 4 [5]; non-CC, Arm A, 12 weeks followup after EOT): 3/9
relapse (CHC genotype 1 or 4 [5]; non-CC, Arm A, 24 weeks followup after EOT): 4/9
relapse (CHC genotype 1 or 4 [5]; non-CC, Arm C, 12 weeks followup after EOT): 13/18
relapse (CHC genotype 1 or 4 [5]; non-CC, Arm C, 24 weeks followup after EOT): 14/18

NC(=O)c1ncn([C@@H]2O[C@H](CO)[C@@H](O)[C@H]2O)n1 [ribavirin, 1-((2R,3R,4S,5R)-3,4-Dihydroxy-5-hydroxymethyl-tetrahydro-furan-2-yl)-1H-[1,2,4]triazole-3-carboxylic acid amide]
effect on the replication of HCV (HCV [6]): little or no effect
